The structures appear in SMILES notation.

This note sets out measurements from US20260008758A1, “LINEAR DIPEPTIDYL PEPTIDASE 1 INHIBITORS AND USES THEREOF” (Insmed Incorporated, priority 2024, published 2026).

The target in this assay is human DPP1 enzyme (Homo sapiens (Human), UniProt P53634). In words: Human DPP1 enzyme IC50 assay. Type of assay: biochemical. To be noted: recombinant human DPP1, H-Gly-Arg-AMC substrate 400 μM. On the procedure: Test articles were applied to activated human DPP1 enzyme in Assay Buffer (25 mM MES pH 6.0, 50 mM NaCl, 5 mM DTT) in a total reaction volume of 125 μL. 25 μL of compound in Assay Buffer plus 5% DMSO was first added to 50 μL of activated human DPP1 enzyme at a concentration of 1 ng/μL and allowed to pre-incubate for 10 minutes at 37° C. after which 50 μL of 1000 μM H-Gly-Arg-AMC substrate (Bachem; St. Torrance, CA) was added, giving final substrate concentration of 400 μM and a final DMSO concentration of 1%. Substrate cleavage was measured for 90 minutes at 37° C., with fluorescence at Excitation/Emission 350/450 nm measured every 5 minutes. DPP1 concentration was interpolated based on its activity relative to a standard curve of activated human recombinant DPP1 enzyme. IC50 values for each compound were calculated via the XLFit (IDBS Version 5.3.1.3) Add-On to Microsoft Excel using the four parameter fit equation y={A+[(B-A)]/[1+((C/x)^D)]}, which appears as equation number 205 (4 Parameter Logistic Model or Sigmoidal Dose-Response Model) in XLFit. Default constraints were used for each Parameter.
human DPP1 enzyme, sequence (P53634 25-134): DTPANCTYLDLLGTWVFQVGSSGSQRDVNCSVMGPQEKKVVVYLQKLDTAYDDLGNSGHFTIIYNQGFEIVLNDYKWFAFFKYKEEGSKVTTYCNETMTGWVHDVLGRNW
human DPP1 enzyme, sequence (P53634 231-394): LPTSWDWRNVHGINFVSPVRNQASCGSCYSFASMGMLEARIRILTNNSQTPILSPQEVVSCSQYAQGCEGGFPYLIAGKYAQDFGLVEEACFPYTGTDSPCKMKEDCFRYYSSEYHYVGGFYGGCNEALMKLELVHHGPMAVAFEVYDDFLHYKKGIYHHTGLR
human DPP1 enzyme, sequence (P53634 395-463): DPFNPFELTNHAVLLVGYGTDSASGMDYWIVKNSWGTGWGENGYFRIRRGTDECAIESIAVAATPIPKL

The term IC50 denotes the concentration needed to halve the response being measured. For `CN(C)C[C@H](O)CC(=O)N[C@H](C#N)Cc1ccc(-c2ccc3oc(=O)n(C)c3c2)cc1` [Compound 118, (3R)—N-[(1S)-1-cyano-2-[4-(3-methyl-2-oxo-1,3-benzoxazol-5-yl)phenyl]ethyl]-4-(dimethylamino)-3-hydroxybutanamide], the IC50 was at least 15 nM.

`Cc1cn2cc(-c3ccc(C[C@@H](C#N)NC(=O)[C@](C)(N)C4CCC4)c(F)c3)cc2c(C)n1` [Compound 272A, (R)-2-amino-N—((S)-1-cyano-2-(4-(1,3-dimethylpyrrolo[1,2-a]pyrazin-7-yl)-2-fluorophenyl)ethyl)-2-cyclobutylpropanamide]: the IC50 was at least 15 nM.

Turning to `CN(C)C[C@@H](O)C(=O)N[C@H](C#N)Cc1ccc(-c2ccc3oc(=O)n(C)c3c2)cc1` [Compound 104, (2R)—N-[(1S)-1-cyano-2-[4-(3-methyl-2-oxo-1,3-benzoxazol-5-yl)phenyl]ethyl]-3-(dimethylamino)-2-hydroxypropanamide], the IC50 is at least 15 nM.

For `Cn1c(=O)oc2ccc(-c3ccc(C[C@@H](C#N)NC(=O)[C@@H](O)CN4CCOCC4)cc3)cc21` [Compound 121, (2S)—N-[(1S)-1-cyano-2-[4-(3-methyl-2-oxo-1,3-benzoxazol-5-yl)phenyl]ethyl]-2-hydroxy-3-(morpholin-4-yl)propanamide], the IC50 is at least 15 nM.

For `C[C@@H](O)[C@@](C)(N)C(=O)N[C@H](C#N)Cc1ccc(-c2ccc3oc(=O)n(C)c3c2)cc1` [Compound 171C, (2R,3R)-2-amino-N-[(1S)-1-cyano-2-[4-(3-methyl-2-oxo-1,3-benzoxazol-5-yl)phenyl]ethyl]-3-hydroxy-2-methylbutanamide], the IC50 was at least 15 nM.

`Cc1ccccc1C[C@@H](CN)C(=O)N[C@H](C#N)Cc1ccc(-c2ccc3oc(=O)n(C)c3c2)cc1` [Compound 194, (2S)-3-amino-N-[(1S)-1-cyano-2-[4-(3-methyl-2-oxo-1,3-benzoxazol-5-yl)phenyl]ethyl]-2-[(2-methylphenyl)methyl]propanamide]: the concentration for half-maximal inhibition (IC50) is at least 15 nM.

Take `Cn1c(=O)oc2ccc(-c3ccc(C[C@@H](C#N)NC(=O)C[C@@H](N)Cc4cccc(O)c4)cc3)cc21` [Compound 225, (3S)-3-amino-N-[(1S)-1-cyano-2-[4-(3-methyl-2-oxo-1,3-benzoxazol-5-yl)phenyl]ethyl]-4-(3-hydroxyphenyl)butanamide]: the IC50 was at least 15 nM.

As for `CCN(CC)C[C@H](O)C(=O)N[C@H](C#N)Cc1ccc(-c2ccc3oc(=O)n(C)c3c2)cc1` [Compound 115, (2S)—N-[(1S)-1-cyano-2-[4-(3-methyl-2-oxo-1,3-benzoxazol-5-yl)phenyl]ethyl]-3-(diethylamino)-2-hydroxypropanamide], the IC50 is at least 15 nM.

As to `Cn1c(=O)oc2ccc(-c3ccc(C[C@@H](C#N)NC(=O)CC(N)Cc4cocn4)cc3)cc21` (stereo partly drawn) [Compound 230, 3-amino-N-[(1S)-1-cyano-2-[4-(3-methyl-2-oxo-1,3-benzoxazol-5-yl)phenyl]ethyl]-4-(1,3-oxazol-4-yl)butanamide], the IC50 was at least 15 nM.

For `CCN(C)C[C@H](OC)C(=O)N[C@H](C#N)Cc1ccc(-c2ccc3oc(=O)n(C)c3c2)cc1` [Compound 130, (2S)—N-[(1S)-1-cyano-2-[4-(3-methyl-2-oxo-1,3-benzoxazol-5-yl)phenyl]ethyl]-3-[ethyl(methyl)amino]-2-methoxypropanamide], the IC50 was at least 15 nM.

For `Cn1c(=O)oc2ccc(-c3ccc(C[C@@H](C#N)NC(=O)C(C)(CN)Cc4ccccc4F)cc3)cc21` (stereo partly drawn) [Compound 196, 3-Amino-N-[(1S)-1-cyano-2-[4-(3-methyl-2-oxo-1,3-benzoxazol-5-yl)phenyl]ethyl]-2-[(2-fluorophenyl)methyl]-2-methylpropanamide], the IC50 is at least 15 nM.

Take `Cc1ccccc1[C@@H](N)CC(=O)N[C@H](C#N)Cc1ccc(-c2ccc3oc(=O)n(C)c3c2)cc1` [Compound 198, (3S)-3-amino-N-[(1S)-1-cyano-2-[4-(3-methyl-2-oxo-1,3-benzoxazol-5-yl)phenyl]ethyl]-3-(2-methylphenyl)propanamide]: the IC50 was at least 15 nM.

Consider `Cn1c(=O)oc2ccc(-c3ccc(C[C@@H](C#N)NC(=O)[C@@H](O)CN4CCCC4)cc3)cc21` [Compound 120, (2S)—N-[(1S)-1-cyano-2-[4-(3-methyl-2-oxo-1,3-benzoxazol-5-yl)phenyl]ethyl]-2-hydroxy-3-(pyrrolidin-1-yl)propanamide], for which the IC50 was at least 15 nM.

Take `Cn1c(=O)oc2ccc(-c3ccc(C[C@@H](C#N)NC(=O)C(N)Cc4cncc(O)c4)cc3)cc21` (stereo partly drawn) [Compound 217, 2-amino-N-[(1S)-1-cyano-2-[4-(3-methyl-2-oxo-1,3-benzoxazol-5-yl)phenyl]ethyl]-3-(5-hydroxypyridin-3-yl)propanamide]: the IC50 was at least 15 nM.

Regarding `CCN1C(=O)Cc2ccc(-c3ccc(C[C@@H](C#N)NC(=O)[C@](C)(N)C4CCCC4)cc3)cc21` [Compound 259B, (2R)-2-amino-N-[(1S)-1-cyano-2-[4-(1-ethyl-2-oxo-3H-indol-6-yl)phenyl]ethyl]-2-cyclopentylpropanamide], the IC50 is at least 15 nM.

On to `Cn1c(=O)oc2ccc(-c3ccc(C[C@@H](C#N)NC(=O)C(C)(CN)Cc4c(F)cccc4Cl)cc3)cc21` (stereo partly drawn) [Compound 197, 3-amino-2-[(2-chloro-6-fluorophenyl)methyl]-N-[(1S)-1-cyano-2-[4-(3-methyl-2-oxo-1,3-benzoxazol-5-yl)phenyl]ethyl]-2-methylpropanamide], for which the IC50 is at least 15 nM.

As to `CCN(CC)C[C@@H](O)C(=O)N[C@H](C#N)Cc1ccc(-c2ccc3oc(=O)n(C)c3c2)cc1` [Compound 116, (2R)—N-[(1S)-1-cyano-2-[4-(3-methyl-2-oxo-1,3-benzoxazol-5-yl)phenyl]ethyl]-3-(diethylamino)-2-hydroxypropanamide], the IC50 was at least 15 nM.

As for `Cn1c(=O)oc2ccc(-c3ccc(C[C@@H](C#N)NC(=O)C(C)(N)c4cccnc4)cc3)cc21` (stereo partly drawn) [Compound 216, 2-amino-N-[(1S)-1-cyano-2-[4-(3-methyl-2-oxo-1,3-benzoxazol-5-yl)phenyl]ethyl]-2-(pyridin-3-yl)propanamide], the IC50 is at least 15 nM.

For the molecule `CC(O)CNCC(=O)N[C@H](C#N)Cc1ccc(-c2ccc3oc(=O)n(C)c3c2)cc1` (stereo partly drawn) [Compound 174, N—((S)-1-cyano-2-(4-(3-methyl-2-oxo-2,3-dihydrobenzo[d]oxazol-5-yl)phenyl)ethyl)-2-((2-hydroxypropyl)amino)acetamide], the IC50 was at least 15 nM.

As to `Cc1ccccc1C[C@H](CN)C(=O)N[C@H](C#N)Cc1ccc(-c2ccc3oc(=O)n(C)c3c2)cc1` [Compound 193, (2R)-3-amino-N-[(1S)-1-cyano-2-[4-(3-methyl-2-oxo-1,3-benzoxazol-5-yl)phenyl]ethyl]-2-[(2-methylphenyl)methyl]propanamide], the IC50 was at least 15 nM.

As for `Cn1c(=O)oc2ccc(-c3ccc(C[C@@H](C#N)NC(=O)CC(N)c4cocn4)cc3)cc21` (stereo partly drawn) [Compound 229, 3-amino-N-[(1S)-1-cyano-2-[4-(3-methyl-2-oxo-1,3-benzoxazol-5-yl)phenyl]ethyl]-3-(1,3-oxazol-4-yl)propanamide], the IC50 was at least 15 nM.

In the case of `Cc1ccccc1CC(CN)C(=O)N[C@H](C#N)Cc1ccc(-c2ccc3oc(=O)n(C)c3c2)cc1` (some centres unmarked) [Compound 192], the IC50 is at least 15 nM.

On to `CN(C)C[C@H](O)C(=O)N[C@@H](C#N)Cc1cc2c(cc1F)-c1ccc(C#N)cc1CO2` [Compound 277B, (2S)—N-[(1R)-1-cyano-2-{8-cyano-2-fluoro-6H-benzo[c]chromen-3-yl}ethyl]-3-(dimethylamino)-2-hydroxypropanamide], for which the IC50 was at least 15 nM.

As to `Cn1c(=O)oc2ccc(-c3ccc(C[C@@H](C#N)NC(=O)C[C@@H](N)c4ccccc4O)cc3)cc21` [Compound 227B, (3R)-3-amino-N-[(1S)-1-cyano-2-[4-(3-methyl-2-oxo-1,3-benzoxazol-5-yl)phenyl]ethyl]-3-(2-hydroxyphenyl)propanamide], the IC50 is at least 15 nM.

As to `Cn1c(=O)oc2ccc(-c3ccc(C[C@@H](C#N)NC(=O)C[C@@H](N)C4CCCO4)cc3)cc21` (stereo partly drawn) [Compound 226, (3R)-3-amino-N—((S)-1-cyano-2-(4-(3-methyl-2-oxo-2,3-dihydrobenzo[d]oxazol-5-yl)phenyl)ethyl)-3-(tetrahydrofuran-2-yl)propanamide], the IC50 was at least 15 nM.

Turning to `Cn1c(=O)oc2ccc(-c3ccc(C[C@@H](C#N)NC(=O)CC(N)c4ccccc4)cc3)cc21` (stereo partly drawn) [Compound 189, 3-amino-N-[(1S)-1-cyano-2-[4-(3-methyl-2-oxo-2,3-dihydro-1,3-benzoxazol-5-yl)phenyl]ethyl]-3-phenylpropanamide], the IC50 was at least 15 nM.

Turning to `Cn1c(=O)oc2ccc(-c3ccc(C[C@@H](C#N)NC(=O)C(CN)Cc4cccnc4)cc3)cc21` (stereo partly drawn) [Compound 191, 3-Amino-N-[(1S)-1-cyano-2-[4-(3-methyl-2-oxo-1,3-benzoxazol-5-yl)phenyl]ethyl]-2-(pyridin-3-ylmethyl) propanamide], the IC50 was at least 15 nM.

`CN1CCN[C@@H](CC(=O)N[C@H](C#N)Cc2ccc(-c3ccc4oc(=O)n(C)c4c3)cc2)C1` [Compound 253, N-[(1S)-1-cyano-2-[4-(3-methyl-2-oxo-1,3-benzoxazol-5-yl)phenyl]ethyl]-2-(4-methylpiperazin-2-yl)acetamide]: the 50% inhibitory concentration (IC50) was at least 15 nM.

Take `C[C@@H](N)[C@H](O)C(=O)N[C@H](C#N)Cc1ccc(-c2ccc3oc(=O)n(C)c3c2)cc1` [Compound 102A]: the IC50 was at least 15 nM.
